Reference: patent publication US20230241226A1, “COMPOUNDS FOR TARGETED DEGRADATION OF CARRIER PROTEINS AND USES THEREOF” (CeMM - Forschungszentrum für Molekulare Medizin GmbH, priority 2019, published 2023)

Legend:
Strep/HA SLC9A3 = target: T1, Strep/HA SLC9A3 (Homo sapiens, UniProt P48764); experiment: Selectivity across SLC9 family: degradation of exogenous Strep/HA SLC9A3; format: cell-based; details: HAP1; 250 or 750 nM; 16 hours
T1 construct: expressed in transfected cells; host or cells: HAP1 (lentiviral, pRRL Strep-HA; cDNA synthesized by Genescript)
Protocol: (E) Selectivity of d9A1-2 was tested across HAP1 cell lines expressing Strep/HASLC9A1, 9A4, 9A5, 9A8, 9A2, 9B2, 9A6, 9A9, and 9A3. Cells were treated with varying concentrations of d9A1-2 for 16 hours, after which degradation of the exogenous SLCs was monitored.
SLC1A5, SLC2A1, SLC2A3, SLC16A1, SLC38A1, SLC38A2 were obtained as gateway-compatible pENTR/pDONR vectors from the Harvard PlasmID Repository. SLC39A7 was obtained from Dharmacon, GE Healthcare. The following vectors were synthesized by Genescript: SLC4A4, SLC7A3, SLC38A9, SLC25A1, SLC9A1, SLC9A2, SLC9A3, SLC9A4, SLC9A5, SLC9A6, SLC9A7, SLC9A8, and SLC9B2. SLC30A9, SLC33A1, SLC35B2, SLC25A26, and MTCH2 were a gift from the RESOLUTE consortium. cDNAs were transferred into gateway-compatible lentiviral expression vectors: pLX305 dTAG vectors (Addgene #91797/8) or pRRL Strep-HA (described previously43, EF1a promotor driven expression) using LR recombination (ThermoFisher Scientific). […]
(§1) For immunoblotting, whole cell extracts were prepared using RIPA lysis buffer (25 mM Tris/HCl pH 7.6, 150 mM NaCl, 1% NP-40, 1% sodium deoxycholate, 0.1% SDS, EDTA-free protease inhibitor (Roche) and phosphatase inhibitors 2+3 (Sigma- Aldrich)). […] Protein extracts were quantified and normalized using the BCA assay (Thermo Scientific). […]

dTAG-HA SLC33A1 = target: T2, dTAG-HA SLC33A1 (Homo sapiens, UniProt O00400+Q96SW2); experiment: Targeted degradation of dTAG-tagged SLC33A1 (western blot); format: cell-based; details: HAP1, 0.5 µM
T2 construct: expressed in transfected cells
Protocol: (C)HAP1 cells expressing dTAG-HA SLC1A5, 2A3, 30A9, 35B2, MTCH2, and 33A1 were treated for 24 hours with 0.5 µM of dTAG7 or dTAG13, as indicated. HAP1 cells expressing dTAG-HA SLC2A1 and 16A1 were treated for 24 hrs with 0.5 µM of dTAG7. HAP1 cell lines expressing dTAG-HA SLC39A7, dTAG-HA SLC4A4, and SLC7A3-dTAG-HA were treated for 48 hrs with 0.5 µM of dTAG13.
SLC1A5, SLC2A1, SLC2A3, SLC16A1, SLC38A1, SLC38A2 were obtained as gateway-compatible pENTR/pDONR vectors from the Harvard PlasmID Repository. SLC39A7 was obtained from Dharmacon, GE Healthcare. The following vectors were synthesized by Genescript: SLC4A4, SLC7A3, SLC38A9, SLC25A1, SLC9A1, SLC9A2, SLC9A3, SLC9A4, SLC9A5, SLC9A6, SLC9A7, SLC9A8, and SLC9B2. […]
as §1
SLCs were ectopically expressed as fusions to a mutated FKBP domain, also known as the dTAG system. […]

T2 sequence (O00400 with tags, fused parts or gaps): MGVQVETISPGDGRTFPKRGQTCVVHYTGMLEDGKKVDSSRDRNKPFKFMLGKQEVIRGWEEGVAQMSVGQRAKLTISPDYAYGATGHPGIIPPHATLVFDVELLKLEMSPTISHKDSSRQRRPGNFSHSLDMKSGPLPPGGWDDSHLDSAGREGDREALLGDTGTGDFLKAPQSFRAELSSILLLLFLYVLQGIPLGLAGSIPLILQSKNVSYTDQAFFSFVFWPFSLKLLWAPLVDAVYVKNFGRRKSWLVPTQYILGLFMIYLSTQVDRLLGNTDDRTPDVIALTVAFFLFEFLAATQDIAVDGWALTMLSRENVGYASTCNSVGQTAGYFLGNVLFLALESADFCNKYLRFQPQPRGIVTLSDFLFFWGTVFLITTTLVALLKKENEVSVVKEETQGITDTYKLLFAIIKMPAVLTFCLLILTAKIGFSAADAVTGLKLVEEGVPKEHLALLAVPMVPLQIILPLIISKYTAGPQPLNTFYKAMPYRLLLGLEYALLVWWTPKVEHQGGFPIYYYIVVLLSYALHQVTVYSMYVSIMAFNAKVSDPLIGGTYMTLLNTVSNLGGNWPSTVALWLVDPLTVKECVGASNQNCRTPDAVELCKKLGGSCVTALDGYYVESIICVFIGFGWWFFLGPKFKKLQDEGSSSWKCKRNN
T2 sequence (Q96SW2 whole entry): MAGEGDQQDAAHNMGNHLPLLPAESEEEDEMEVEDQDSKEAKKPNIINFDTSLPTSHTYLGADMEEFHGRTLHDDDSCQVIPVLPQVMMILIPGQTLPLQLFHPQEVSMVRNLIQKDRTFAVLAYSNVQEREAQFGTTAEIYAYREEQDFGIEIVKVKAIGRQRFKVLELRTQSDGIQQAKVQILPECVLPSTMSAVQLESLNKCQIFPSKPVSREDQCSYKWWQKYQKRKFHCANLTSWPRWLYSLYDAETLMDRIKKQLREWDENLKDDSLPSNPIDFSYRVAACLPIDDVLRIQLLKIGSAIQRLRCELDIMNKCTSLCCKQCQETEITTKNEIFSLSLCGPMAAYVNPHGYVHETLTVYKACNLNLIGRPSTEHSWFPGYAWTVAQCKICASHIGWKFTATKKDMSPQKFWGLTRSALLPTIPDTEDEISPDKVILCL
T2 sequence (Q16531 whole entry partner): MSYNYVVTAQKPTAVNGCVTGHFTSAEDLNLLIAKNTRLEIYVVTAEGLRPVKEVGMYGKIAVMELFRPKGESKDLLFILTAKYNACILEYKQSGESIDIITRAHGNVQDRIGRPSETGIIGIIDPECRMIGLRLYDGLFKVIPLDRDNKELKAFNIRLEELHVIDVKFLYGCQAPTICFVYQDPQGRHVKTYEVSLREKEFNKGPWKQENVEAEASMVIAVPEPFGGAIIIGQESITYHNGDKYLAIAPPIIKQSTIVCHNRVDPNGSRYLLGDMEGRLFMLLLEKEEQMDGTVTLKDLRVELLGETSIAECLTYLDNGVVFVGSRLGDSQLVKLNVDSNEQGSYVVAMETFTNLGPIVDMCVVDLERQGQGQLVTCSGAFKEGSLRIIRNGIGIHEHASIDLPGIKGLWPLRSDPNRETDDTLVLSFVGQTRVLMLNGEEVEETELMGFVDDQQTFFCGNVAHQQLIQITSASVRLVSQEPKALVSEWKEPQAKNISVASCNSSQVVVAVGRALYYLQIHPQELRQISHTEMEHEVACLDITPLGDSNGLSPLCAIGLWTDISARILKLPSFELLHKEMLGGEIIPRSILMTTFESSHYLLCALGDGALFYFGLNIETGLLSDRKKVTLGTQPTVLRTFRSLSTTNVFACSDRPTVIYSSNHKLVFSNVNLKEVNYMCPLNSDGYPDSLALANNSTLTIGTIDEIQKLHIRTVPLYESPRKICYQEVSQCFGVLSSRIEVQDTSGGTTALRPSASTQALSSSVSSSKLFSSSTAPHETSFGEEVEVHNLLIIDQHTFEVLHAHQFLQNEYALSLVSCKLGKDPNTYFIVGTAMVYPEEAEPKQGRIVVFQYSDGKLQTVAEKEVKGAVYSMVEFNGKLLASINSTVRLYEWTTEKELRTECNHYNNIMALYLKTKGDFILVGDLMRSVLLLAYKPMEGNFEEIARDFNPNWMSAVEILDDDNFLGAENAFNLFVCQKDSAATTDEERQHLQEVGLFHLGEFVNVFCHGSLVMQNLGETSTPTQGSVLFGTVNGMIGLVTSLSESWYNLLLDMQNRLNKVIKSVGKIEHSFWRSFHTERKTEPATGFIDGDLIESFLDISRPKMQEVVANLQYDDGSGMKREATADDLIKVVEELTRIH
T1 sequence (P48764 26-834): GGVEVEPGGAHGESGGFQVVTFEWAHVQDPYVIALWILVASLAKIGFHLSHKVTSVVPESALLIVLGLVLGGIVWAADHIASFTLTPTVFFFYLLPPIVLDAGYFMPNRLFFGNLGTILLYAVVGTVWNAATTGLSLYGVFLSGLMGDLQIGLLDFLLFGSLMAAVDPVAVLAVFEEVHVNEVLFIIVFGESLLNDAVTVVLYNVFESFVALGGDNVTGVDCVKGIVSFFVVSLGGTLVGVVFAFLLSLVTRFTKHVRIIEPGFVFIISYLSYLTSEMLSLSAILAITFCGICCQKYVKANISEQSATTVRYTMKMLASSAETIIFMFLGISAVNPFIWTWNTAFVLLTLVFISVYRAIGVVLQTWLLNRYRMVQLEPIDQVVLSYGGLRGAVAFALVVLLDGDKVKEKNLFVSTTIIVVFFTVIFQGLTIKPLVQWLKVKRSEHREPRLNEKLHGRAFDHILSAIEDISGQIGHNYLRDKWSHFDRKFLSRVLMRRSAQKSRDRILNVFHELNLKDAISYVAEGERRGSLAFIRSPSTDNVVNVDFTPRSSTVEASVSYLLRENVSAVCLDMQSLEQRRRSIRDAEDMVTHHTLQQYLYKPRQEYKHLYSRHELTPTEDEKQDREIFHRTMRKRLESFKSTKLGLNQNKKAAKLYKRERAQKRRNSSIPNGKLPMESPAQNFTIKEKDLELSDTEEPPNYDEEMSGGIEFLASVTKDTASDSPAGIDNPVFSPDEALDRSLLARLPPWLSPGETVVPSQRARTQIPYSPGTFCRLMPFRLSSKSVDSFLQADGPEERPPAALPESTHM

Structure (SMILES) | abundance of exogenous SLC9A3 (Strep/HA SLC9A3) | initiation of degradation (time course) (dTAG-HA SLC33A1) [h]
Cc1cc(-c2ccc(C(=O)NCCOCCOCCOCCOCCNc3cccc4c3C(=O)N(C3CCC(=O)NC3=O)C4=O)cc2N2CCC(c3[nH]cnc3C)CC2)ccc1F (centres unmarked) [d9A1-2] | not significantly affected | –
CC[C@H](C(=O)N1CCCC[C@H]1C(=O)O[C@H](CCc1ccc(OC)c(OC)c1)c1ccccc1OCC(=O)NCCCOCCOCCOCCCNC(=O)COc1cccc2c1C(=O)N(C1CCC(=O)NC1=O)C2=O)c1cc(OC)c(OC)c(OC)c1 (some centres unmarked) [dTAG7] | – | ≤ 6
